The results in this text go back to ChEMBL document CHEMBL1201862, “PubChem BioAssay data set” (2004).

SMILES strings stand for the structures.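 48-hour exposure; five concentrations; linearly interpolated endpoints. At the GI50, growth is halved.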 Calls of active or inactive are those of the source. Rule as the data show it: active = GI50 up to about 1.1 µM and inactive = higher.

Test systems include SF-539; NCI-H460; NCI-H226; A549; LOX IMVI; UACC-257; CCRF-CEM; SNB-75; K562; A498; M14; COLO 205; SF-295; HCT-15; HCT-116; MOLT-4; SK-MEL-28; U-251; SK-OV-3; Malme-3M.
Holding throughout (experiment): DTP human tumour cell line panel, 48 h

For the compound `Cc1cc2nc3ccccc3n2c2nc(N)ccc12`, the GI50 (commonly the concentration giving 50% growth inhibition) in the test on SF-539 was 26.5 µM (inactive); in the test on NCI-H460, 4.02 µM (inactive); with NCI-H226 it was 27.2 µM (inactive); with A549, 30.9 µM (inactive); in the test with LOX IMVI it was 22.1 µM (inactive); in the test on UACC-257, > 100 µM (inactive). Further, the GI50 in the test with CCRF-CEM is 38.5 µM (inactive); with SNB-75, > 100 µM (inactive); with K562, 54.1 µM (inactive); in the test with A498, 46.1 µM (inactive); in the test on M14, 48 µM (inactive); in the test on COLO 205 it was 32.9 µM (inactive). In addition, the GI50 is 23.3 µM (inactive) in the test with SF-295, 12 µM with HCT-15, 14.8 µM (inactive) in the test on HCT-116 and 17.7 µM (inactive) with MOLT-4.
On to `O=C(c1ccc2ccccc2c1O)N1CCCCC1`, for which the GI50 with SF-539 was > 100 µM (inactive); in the test on NCI-H460, 80.7 µM (inactive); with NCI-H226, > 100 µM (inactive); with SK-MEL-28, > 100 µM (inactive); in the test with LOX IMVI, 90.4 µM (inactive); in the test with U-251, > 100 µM (inactive). Besides, the GI50 with UACC-257 was > 100 µM (inactive); in the test on SK-OV-3 it was > 100 µM (inactive); in the test on CCRF-CEM, > 100 µM (inactive); in the test on SNB-75, > 100 µM (inactive); in the test with K562 it was 28.4 µM (inactive); in the test on A498 it was > 100 µM (inactive). Moreover, the GI50 in the test on M14 was > 100 µM (inactive); with COLO 205, > 100 µM (inactive); with SF-295 it was 92.9 µM (inactive); in the test with HCT-15, over 100 µM; in the test with HCT-116, 65.8 µM (inactive); with MOLT-4 it was 23.2 µM (inactive).
With `O=C(Nc1ccc(/N=N/c2ccccc2)cc1)Sc1ccccc1C(=O)O`, the GI50 in the test with SF-539, with NCI-H460, with NCI-H226, in the test on A549, with SK-MEL-28 and in the test with LOX IMVI was > 100 µM (inactive) each time. Moreover, the GI50 with U-251 was > 100 µM (inactive); in the test on UACC-257 it was > 100 µM (inactive); in the test on CCRF-CEM, > 10 µM (inactive); with SNB-75, > 100 µM (inactive); with K562, > 100 µM (inactive); in the test with A498, > 100 µM (inactive). In addition, the GI50 in the test on M14 was > 100 µM (inactive); in the test on COLO 205, > 100 µM (inactive); with SF-295, > 100 µM (inactive); in the test on HCT-15, over 100 µM; in the test with HCT-116 it was 57.1 µM (inactive); in the test with MOLT-4 it was > 100 µM (inactive).
Turning to `CC(C)C(=O)OCN(C)c1nc(N(C)COC(=O)C(C)C)nc(N(C)COC(=O)C(C)C)n1`, the GI50 in the test on SF-539 was 23.2 µM (inactive); in the test on NCI-H460, 21.8 µM (inactive); in the test with NCI-H226, 41.4 µM (inactive); in the test with A549, 43.1 µM (inactive); with SK-MEL-28, 19.8 µM (inactive); in the test on LOX IMVI it was 14.6 µM (inactive). In addition, the GI50 with UACC-257 was 19.1 µM (inactive); in the test with CCRF-CEM, 22.3 µM (inactive); in the test on SNB-75, 17.8 µM (inactive); with K562 it was 30.5 µM (inactive); in the test with A498 it was 36 µM (inactive); with M14, 17 µM (inactive). For the same compound, the GI50 in the test on COLO 205 is 20.1 µM (inactive); with SF-295, 27.3 µM (inactive); in the test on HCT-15, 21.6 µM; in the test with HCT-116 it was 32.1 µM (inactive); with MOLT-4 it was 22.3 µM (inactive).
Turning to `COC1CC(OC2CCC3(C)C(=CCC4C3C(OC(C)=O)C(OC(=O)CC(C)C)C3(C)C(C(C)=O)CCC43O)C2)OC(C)C1OC1CC(OC)C(OC2CC(OC)C(OC3OC(C)C(OC4OC(CO)C(O)C(O)C4O)C(OC)C3O)C(C)O2)C(C)O1` (stereo unspecified), the GI50 is > 75 µM (inactive) in the test with SF-539; > 7.5 µM (inactive) in the test on NCI-H460; > 75 µM (inactive) in the test with NCI-H226; > 75 µM (inactive) in the test on A549; > 75 µM (inactive) in the test on SK-MEL-28; > 75 µM (inactive) in the test with LOX IMVI. The GI50 with U-251 was > 75 µM (inactive); in the test with UACC-257, > 75 µM (inactive); with SK-OV-3, > 75 µM (inactive); in the test on CCRF-CEM it was > 7.5 µM (inactive); with SNB-75 it was > 75 µM (inactive); with K562, > 75 µM (inactive). Moreover, the GI50 in the test on A498 is > 75 µM (inactive); in the test with M14, > 75 µM (inactive); with COLO 205, > 75 µM (inactive); with SF-295, > 75 µM (inactive); in the test on HCT-15, over 75 µM; with HCT-116, > 75 µM (inactive). In the test on MOLT-4, the GI50 is > 75 µM (inactive).
For the compound `CCOC(=O)c1csc(NC(=O)C(C)N2CCCC2)n1` (stereo unspecified), the GI50 in the test on SF-539, in the test on NCI-H460, in the test on A549, with SK-MEL-28, in the test with LOX IMVI and with U-251 was > 100 µM (inactive) in each case. Moreover, the GI50 with UACC-257, with SK-OV-3, with CCRF-CEM, in the test with SNB-75, in the test with K562 and in the test on A498 was > 100 µM (inactive) in each case. Moreover, the GI50 with M14 was > 100 µM (inactive); in the test on COLO 205, > 100 µM (inactive); with SF-295, > 100 µM (inactive); in the test with HCT-15, over 100 µM.
As to `CCN(CC(=O)O)C(=O)c1cccnc1`, the GI50 in the test with NCI-H460, in the test with Malme-3M, in the test on A549, in the test with SK-MEL-28, in the test on LOX IMVI and in the test on U-251 was > 100 µM (inactive) in each case. For the same compound, the GI50 with UACC-257, in the test with SNB-75, in the test with K562, in the test on A498, in the test on M14 and in the test on SF-295 was > 100 µM (inactive) in each case. For the same compound, the GI50 is over 100 µM in the test on HCT-15, > 100 µM (inactive) in the test on HCT-116 and > 100 µM (inactive) in the test on MOLT-4.
As to `O=C(C/C=C/c1ccccc1)c1ccccc1`, the GI50 in the test with SF-539 was 25 µM (inactive); with NCI-H460, 19.9 µM (inactive); in the test on NCI-H226, 29.5 µM (inactive); with A549 it was 10.8 µM (inactive); in the test with SK-MEL-28, 27.2 µM (inactive); with LOX IMVI, 12 µM (inactive). Also, the GI50 in the test with U-251 is 14.6 µM (inactive); with UACC-257, 21.9 µM (inactive); with SK-OV-3, 49.5 µM (inactive); in the test on CCRF-CEM, 22.2 µM (inactive); in the test on SNB-75, 20.6 µM (inactive); in the test on A498, 15.7 µM (inactive). Besides, the GI50 in the test on M14 is 16.2 µM (inactive); with COLO 205 it was 22.5 µM (inactive); in the test on SF-295, 44.4 µM (inactive); with HCT-15 it was 18.8 µM; in the test on HCT-116, 17.4 µM (inactive); in the test with MOLT-4 it was 20.8 µM (inactive).
Regarding `CCC(C)[C@H]1C(=O)N=C(N)N1C(=O)OCc1ccccc1` (stereo partly specified), the GI50 in the test with NCI-H460, with Malme-3M, in the test with NCI-H226, with SK-MEL-28, in the test with LOX IMVI and in the test on U-251 was > 100 µM (inactive) each time. Further, the GI50 in the test on UACC-257, in the test on SNB-75, with K562, in the test on A498, in the test with COLO 205 and in the test with SF-295 was > 100 µM (inactive) throughout. The GI50 was over 100 µM with HCT-15, > 100 µM (inactive) in the test on HCT-116 and > 100 µM (inactive) in the test on MOLT-4.
For `N=C(N)SCCc1ccncc1`, the GI50 in the test on SF-539, with NCI-H460, in the test on NCI-H226, with A549, in the test on SK-MEL-28 and in the test with LOX IMVI was > 100 µM (inactive) each time. In addition, the GI50 in the test on U-251 is > 100 µM (inactive); in the test on UACC-257 it was > 100 µM (inactive); in the test on SK-OV-3, > 100 µM (inactive); in the test with CCRF-CEM, 65.8 µM (inactive); with SNB-75, > 100 µM (inactive); in the test with K562, > 100 µM (inactive). In addition, the GI50 was > 100 µM (inactive) with A498; > 100 µM (inactive) in the test with M14; > 100 µM (inactive) with COLO 205; > 100 µM (inactive) in the test on SF-295; over 100 µM in the test with HCT-15; > 100 µM (inactive) with HCT-116. For the same compound, the GI50 with MOLT-4 is > 100 µM (inactive).
Consider `CCN(CC)CC1CCCCCCCCCCC1=O` (stereo unspecified), for which the GI50 in the test on NCI-H460, with Malme-3M, in the test on NCI-H226, with A549, in the test with SK-MEL-28 and with LOX IMVI was > 100 µM (inactive) each time. Further, the GI50 in the test with U-251 was > 100 µM (inactive); in the test on UACC-257, > 100 µM (inactive); with CCRF-CEM, > 100 µM (inactive); in the test with SNB-75 it was 42.3 µM (inactive); in the test with K562, > 100 µM (inactive); with A498, > 100 µM (inactive). The GI50 with M14 is > 100 µM (inactive); in the test on COLO 205, > 100 µM (inactive); in the test on SF-295 it was > 100 µM (inactive); in the test with HCT-15, over 100 µM; with HCT-116, > 100 µM (inactive); in the test on MOLT-4 it was > 100 µM (inactive).
For `O=C(O)CSC(CC1(c2ccc(Cl)cc2)NC(=O)CS1)c1ccc(Cl)cc1` (stereo unspecified), the GI50 in the test with SF-539 was > 100 µM (inactive); in the test with NCI-H460, 85.5 µM (inactive); in the test on A549 it was > 100 µM (inactive); with LOX IMVI, > 100 µM (inactive); in the test with U-251, 89.7 µM (inactive); in the test on UACC-257, 65.9 µM (inactive). Besides, the GI50 in the test with SK-OV-3 was > 100 µM (inactive); in the test on CCRF-CEM it was 69.3 µM (inactive); with SNB-75, > 100 µM (inactive); in the test on K562, > 100 µM (inactive); in the test with A498, > 100 µM (inactive); with M14, > 100 µM (inactive). Further, the GI50 is > 100 µM (inactive) in the test on COLO 205; > 100 µM (inactive) in the test with SF-295; over 100 µM in the test with HCT-15; > 100 µM (inactive) in the test with HCT-116; > 100 µM (inactive) in the test with MOLT-4.
